The species entered for experiment [1] is Rattus norvegicus. The experiment is described as follows: Selectivity index, ratio of IC50 for Wistar rat kidney ALR1 to IC50 for Wistar rat lens ALR2.
In experiment [2] the target is Aldo-keto reductase family 1 member A1 (Rattus norvegicus, UniProt P51635). Put plainly: Inhibition of Wistar rat kidney ALR1 assessed as reduction in NADPH oxidation using D-glycuronate as substrate by UV-visible spectrophotometric method.
Experiment [3] can be described thus: Inhibition of Wistar rat lens ALR2 assessed as reduction in NADPH oxidation using D,L-glyceraldehyde as substrate by UV-visible spectrophotometric method.
The species entered for experiment [4] is Homo sapiens. Put plainly: Ratio of Ki for recombinant human ALR2 expressed in Escherichia coli BL21 (DE3) assessed as enzyme-substrate-inhibitor complex using varying levels of glutathionyl-4-hydroxytrans-2-nonenal substrate to Ki for human ALR2 expressed in Escherichia coli BL21 (DE3) assessed as enzyme-inhibitor complex using varying levels of glutathionyl-4-hydroxytrans-2-nonenal substrate.

The species entered for experiment [5] is Rattus norvegicus. Put plainly: Inhibition of ALR2 in Wistar rat lens assessed as reduction in glucose induced-sorbitol accumulation by measuring sorbitol level at 50 uM pretreated for 30 mins followed by glucose challenge measured after 3 hrs by resazurin dye based fluorescence assay relative to control. Set-up: scale not given: the % may be the effect or the level left. (The colour change of resazurin is a common sign of viable cells or microbes.)

Experiment [6] is described as follows: Mixed-type inhibition of recombinant human ALR2 expressed in Escherichia coli BL21 (DE3) assessed as enzyme-substrate-inhibitor complex using varying levels of D,L-glyceraldehyde substrate by Hanes-Woolf plot analysis.
Experiment [7] is described as follows: Mixed-type inhibition of recombinant human ALR2 expressed in Escherichia coli BL21 (DE3) assessed as enzyme-inhibitor complex using varying levels of D,L-glyceraldehyde substrate by Hanes-Woolf plot analysis.
The species entered for experiment [8] is Rattus norvegicus. The experiment is described as follows: Inhibition of ALR2 in Wistar rat lens assessed as reduction in glucose induced-sorbitol accumulation by measuring sorbitol level at 10 uM pretreated for 30 mins followed by glucose challenge measured after 3 hrs by resazurin dye based fluorescence assay (reference value: 1026.51 +/- 157.33).
The nature of experiment [9]: Mixed-type inhibition of recombinant human ALR2 expressed in Escherichia coli BL21 (DE3) assessed as enzyme-substrate-inhibitor complex using varying levels of glutathionyl-4-hydroxytrans-2-nonenal substrate by Hanes-Woolf plot analysis.
For experiment [10], the species on record is Rattus norvegicus. The experiment is described as follows: Inhibition of ALR2 in Wistar rat lens assessed as reduction in glucose induced-sorbitol accumulation by measuring sorbitol level at 2 uM pretreated for 30 mins followed by glucose challenge measured after 3 hrs by resazurin dye based fluorescence assay (reference value: 1026.51 +/- 157.33).
Experiment [11] is described as follows: Mixed-type inhibition of recombinant human ALR2 expressed in Escherichia coli BL21 (DE3) assessed as enzyme-inhibitor complex using varying levels of 4-hydroxy-trans-2-nonenal substrate by Hanes-Woolf plot analysis.
Experiment [12] can be described thus: Mixed-type inhibition of recombinant human ALR2 expressed in Escherichia coli BL21 (DE3) assessed as enzyme-inhibitor complex using varying levels of L-idose substrate by Hanes-Woolf plot analysis.
Experiment [13] can be described thus: Mixed-type inhibition of recombinant human ALR2 expressed in Escherichia coli BL21 (DE3) assessed as enzyme-inhibitor complex using varying levels of glutathionyl-4-hydroxytrans-2-nonenal substrate by Hanes-Woolf plot analysis.
A short description of experiment [14]: Mixed-type inhibition of recombinant human ALR2 expressed in Escherichia coli BL21 (DE3) assessed as enzyme-substrate-inhibitor complex using varying levels of 4-hydroxy-trans-2-nonenal substrate by Hanes-Woolf plot analysis.
A short description of experiment [15]: Mixed-type inhibition of recombinant human ALR2 expressed in Escherichia coli BL21 (DE3) assessed as enzyme-substrate-inhibitor complex using varying levels of L-idose substrate by Hanes-Woolf plot analysis.
A short description of experiment [16]: Inhibition of Fischer-344 rat lens ALR2.

Sequence of Aldo-keto reductase family 1 member A1 (P51635 whole entry, looked up): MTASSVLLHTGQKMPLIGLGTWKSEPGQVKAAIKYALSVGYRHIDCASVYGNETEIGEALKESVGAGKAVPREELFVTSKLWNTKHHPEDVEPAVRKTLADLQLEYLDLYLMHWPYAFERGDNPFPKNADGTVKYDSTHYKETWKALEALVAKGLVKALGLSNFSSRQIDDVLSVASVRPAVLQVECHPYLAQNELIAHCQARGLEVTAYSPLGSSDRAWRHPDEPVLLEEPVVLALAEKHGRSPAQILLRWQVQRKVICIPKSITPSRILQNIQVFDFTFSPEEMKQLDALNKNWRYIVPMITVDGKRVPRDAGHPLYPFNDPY

Turning to `O=C(c1ccccc1)c1cc(C(=O)C(F)(F)F)n(-c2cnn(O)c2)c1`, the Ratio IC50 in experiment [1] is over 413. The IC50 in [2] is over 100 µM. Also, in [3], the IC50 amounted to 242 nM and the pIC50 was 6.62.
As to `COc1ccc(C(=O)c2cc(C(=O)C(F)(F)F)n(-c3cnn(O)c3)c2)cc1`, the Ratio IC50 in [1] is 468. For the same compound, in experiment [2], the IC50 was found to be 34.2 µM. In addition, in experiment [3], the IC50 was determined as 73 nM and the pIC50 worked out at 7.14.
Regarding `O=C(c1ccc(F)cc1)c1cc(C(=O)C(F)(F)F)n(-c2cnn(O)c2)c1`, the Ratio Ki in [4] is 0.75. The Activity in experiment [5] worked out at 55%; in experiment [8], 710 nmol/g; in [10], 838 nmol/g. Besides, the Ki in experiment [6] turned out to be 820 nM; in [7] it was 5.27 µM; in [9], 2460 nM; in [11] it was 5.84 µM; in experiment [12] it was 8.61 µM; in experiment [13], 1860 nM. Further, the results for the Ki in experiment [14] and in experiment [15] were 2190 nM and 700 nM, respectively. For the same compound, the Ratio IC50 in experiment [1] was 858. The IC50 in experiment [2] is 67.1 µM; in [3] it was 78 nM. Also, the pIC50 in experiment [3] is 7.11.
Take `CS(=O)(=O)c1ccc(C(=O)c2cc(C(=O)C(F)(F)F)n(-c3cnn(O)c3)c2)cc1`: in experiment [1], the Ratio IC50 came to 775. Besides, the IC50 in [2] turned out to be 72.8 µM. Further, in [3], the IC50 stood at 94 nM and the pIC50 is 7.03.
In the same order, the values of `O=C(c1ccc(-c2ccccc2)cc1)c1cc(C(=O)C(F)(F)F)n(-c2cnn(O)c2)c1` are 190, 14.1 µM, 74 nM and 7.19.
As for `O=C1NC(=O)[C@@]2(CCOc3ccc(F)cc32)N1` [SORBINIL], half-maximal inhibition in experiment [16] (IC50) required 250 nM.
`CSc1ccc(C(=O)c2cc(C(=O)C(F)(F)F)n(-c3cnn(O)c3)c2)cc1`: the Ratio Ki in experiment [4] is 0.75. Also, the Activity in experiment [5] amounted to 55%; in experiment [8] it was 613 nmol/g; in experiment [10] it was 889 nmol/g. Further, the Ki in experiment [6] was 210 nM; in experiment [7] it was 2.01 µM; in [9], 930 nM; in experiment [11], 2.83 µM; in experiment [12] it was 4.55 µM; in experiment [13], 690 nM. For the same compound, the Ki in experiment [14] turned out to be 390 nM; in experiment [15], 270 nM. In addition, the Ratio IC50 in [1] stood at 650. Besides, the IC50 in experiment [2] was 27.9 µM; in [3] it was 43 nM. Further, the pIC50 in experiment [3] is reported as 7.37.
With `COc1cccc(C(=O)c2cc(C(=O)C(F)(F)F)n(-c3cnn(O)c3)c2)c1`, the Ratio IC50 in experiment [1] was determined as 370. The IC50 in [2] amounted to 23.7 µM. Further, in experiment [3], the half-inhibitory concentration (IC50) was 64 nM and the pIC50 amounted to 7.13.
On to `O=C(c1cccc(F)c1)c1cc(C(=O)C(F)(F)F)n(-c2cnn(O)c2)c1`, for which, in experiment [1], the Ratio IC50 stood at 339. Moreover, the IC50 in experiment [2] came to 42.3 µM. Moreover, in experiment [3], the IC50 came to 140 nM and the pIC50 stood at 6.85.

For orientation: IC50 means the concentration that gives 50% inhibition. The term pIC50 denotes the IC50 on a negative log10 scale, so that one unit is a factor of ten. A word on the Ki: it is a measure of affinity in units of concentration, obtained from inhibition or displacement.

The record behind these values is ChEMBL document CHEMBL4011583, “Enhancing activity and selectivity in a series of pyrrol-1-yl-1-hydroxypyrazole-based aldose reductase inhibitors: The case of trifluoroacetylation” (Eur J Med Chem, 2017).
